For the experiment, the target named is T1, Hsp90α N-terminal domain (Hsp90N) (Homo sapiens, UniProt P07900).
T1 construct: gene HSP90AA1
Put plainly: competition binding by real-time in-cell […] NMR against spy ligand […] (Kd back-calculated). It is filed as cell-based.

A word on the Kd: it is the equilibrium constant for the complex coming apart.

`CCNC(=O)c1cc2c(-c3cc(OCCN(CC)CC)c(Cl)cc3Cl)nc(N)nc2s1` [compound 5]: the Kd was 0.6 ± 0.1 nM.

The values above are taken from PMC10823471, “Ligand-Based Competition Binding by Real-Time ^19F NMR in Human Cells” (Journal of Medicinal Chemistry, 2024).
